# Laboratory results from patent publication US10441620B2, “Method for protection of bladder from damage” (Wellstrong Biotech Co., Ltd., priority 2016, dated 2019).
# Experiment: CUPRAC assay for total antioxidants
# Conditions: absorbance at 450 nm
# Protocol: The CUPRAC assay was utilized to determine the total antioxidant capacity. This assay relies on the electron donating capabilities of antioxidants to reduce the copper ion. The CUPRAC working solution consisted of 10 mM copper (II) chloride dihydrate, 1M ammonium acetate, and 7.5 mM neocuproine. 0.15 mL of the above three solutions were added to 0.15 mL of each sample and allowed to react for 30 minutes at room temperature, after which the absorbance was read at 450 nm in a Hitachi U-2001 spectrophotometer.
smiles,measurement,value
O=C1O[C@H]([C@@H](O)CO)C(O)=C1O [ascorbic acid],total antioxidant activity (antioxidant value of standard curve),27±1.7 mg Ascorbic acid per mOD optical density
